We go through eleven compounds from patent US20100184759A1, “PYRANO-PYRAZOLE-AMINES” (priority 2007, published 2010).

A word on the Ki: it is the dissociation constant of the complex between target and ligand, obtained from inhibition or displacement. Read a low Ki as tighter binding. For orientation: melting point means the temperature, or range, at which the solid turns liquid. The term inhibition denotes the relative decrease from the control value, in per cent. Low values mean a response near the control, high ones a response far below the control.

Each structure is given as a SMILES string.

The target in one data set is T1, σ1-receptor (Cavia porcellus, UniProt Q60492).
T1 construct: the σ1-receptor preparation was prepared from guinea pig brain; from tissue; host or cells: guinea pig brain membrane homogenate
Briefly: Sigma 1 (Version B) receptor binding, [3H]-(+)-pentazocine, guinea pig brain preparation. As to conditions: radioligand [3H]-(+)-pentazocine 2 nM. As to the method:
In brief the σ1-receptor preparation was prepared from guinea pig brain. The brains were homogenized in 5 to 6 times of volume sucrose solution (0.32M) and homogenized. The homogenate was centrifuged at 2900 rpm, 4° C., 10 min). the supernatant was centrifuged again (23500×g, 4° C., 20 min). The pellet was resuspended in Tris-buffer, incubated for 30 min at room temperature and centrifuged f (23500×g, 4° C., 20 min). The pellet was resuspended in cold TRIS-buffer and homogenized. Then the protein content was measured (approx. 1.5 mg/mL) and the homogenate frozen at −80° C. for later use.
The radioligand used was [^3H]-(+)-Pentazocin in TRIS-buffer. In a volume of 200 μL 50 μL TRIS-buffer, 50 μL compound solution of varying concentration, 50 μL radioligand-solution (8 nM; resulting in 2 nM in the assay) and finally 50 μL of receptor preparation (approx. 1.5 mg/mL) were given into a well of a microplate equipped with a filter. The plate was closed and stirred for 2.5 h at 37° C. and 500 rpm. Following that the solvents were removed by a harvester through the filter. After rinsing with H2O the filter was measured in a scintillation counter ([^3H]-protocol).

A further data set concerns the target T2, σ2-receptor (Rattus norvegicus, UniProt Q5U3Y7).
T2 construct: the σ2-Receptorpreparation was prepared from rat liver; from tissue; host or cells: rat liver membrane homogenate
T2 sequence (Q5U3Y7 1-176): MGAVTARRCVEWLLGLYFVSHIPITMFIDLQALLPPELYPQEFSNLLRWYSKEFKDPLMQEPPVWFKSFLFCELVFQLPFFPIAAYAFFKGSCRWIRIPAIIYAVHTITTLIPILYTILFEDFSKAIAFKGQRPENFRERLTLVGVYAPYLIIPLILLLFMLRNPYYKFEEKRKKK
Briefly: Sigma 2 (Version B) receptor binding, [3H]-ditolylguanidine, rat liver preparation. The note with it: for Ki: radioligand [3H]-ditolylguanidine 3 nM, σ1 sites masked with (+)-pentazocine; for inhibition at 1 µM: compound at 1 μM, value in square brackets. As to the method: In brief the σ2-Receptorpreparation was prepared from rat liver. The livers were homogenized in 5 to 6 times of volume sucrose solution (0.32M) and homogenized. The homogenate was centrifuged at 2900 rpm, 4° C., 10 min). the supernatant was centrifuged again (31000×g, 4° C., 20 min). The pellet was resuspended in TRIS-buffer, incubated for 30 min at room temperature while stirring and centrifuged f (31000×g, 4° C., 20 min). The pellet was resuspended in cold TRIS-buffer pH 8 and homogenized. Then the protein content was measured (approx. 2 mg/mL) and the homogenate frozen at −80° C. for later use.
The radioligand used was [^3H]-Ditolylguanidin in TRIS-buffer pH 8. The σ1-receptor binding sites were masked through (+)-Pentazocin-solution in TRIS-Puffer pH 8.
In a volume of 200 μL 50 μL compound solution of varying concentration, 50 μL (+)-Pentazocin-solution (2 nM; resulting in 500 nM in the assay), 50 μL radioligand-solution (12 nM; resulting in 3 nM in the assay) and finally 50 μL of receptor preparation (approx. 2 mg/mL) were given into a well of a microplate equipped with a filter. The plate was closed and stirred for 2 h at room temperature and 500 rpm. Following that the solvents were removed by a harvester through the filter. After rinsing with H2O the filter was measured in a scintillation counter ([^3H]-protocol).

T1 sequence (Q60492 whole entry): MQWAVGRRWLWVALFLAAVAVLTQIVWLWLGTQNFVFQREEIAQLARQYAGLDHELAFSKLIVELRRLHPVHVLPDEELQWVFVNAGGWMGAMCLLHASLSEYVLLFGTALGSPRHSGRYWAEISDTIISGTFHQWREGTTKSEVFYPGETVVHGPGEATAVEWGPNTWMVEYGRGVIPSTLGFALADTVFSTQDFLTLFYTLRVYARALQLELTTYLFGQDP

`c1ccc(-n2ncc3c2CCOC3CCN2CCCCC2)cc1` (stereo not shown) [Example 8, 1-Phenyl-4-(2-piperidin-1-yl-ethyl)-1,4,6,7-tetrahydro-pyrano[4,3-c]pyrazole]: the Ki amounted to 2.98 ± 0.72 nM on σ1-receptor and 536 nM on σ2-receptor.

`c1ccc(-n2ncc3c2CCOC3CN2CCCCC2)cc1` (stereo not shown) [Example 1, 1-Phenyl-4-(piperidin-1-ylmethyl)-1,4,6,7-tetrahydro-pyrano[4,3-c]pyrazole] registered a melting point of 91 °C. The inhibition constant Ki on σ1-receptor came to 10.5 ± 1.16 nM. The Ki on σ2-receptor was found to be 453 nM.

On to `CN(C)CCC1OCCc2c1cnn2-c1ccccc1` (stereo not shown) [Example 14, Dimethyl-[2-(1-phenyl-1,4,6,7-tetrahydro-pyrano[4,3-c]pyrazol-4-yl)-ethyl]-amine], for which the inhibition constant (Ki) at σ1-receptor was 24 ± 2 nM; on σ2-receptor, 1280 nM.

Turning to `c1ccc(-n2ncc3c2CCOC3CN2CCOCC2)cc1` (stereo not shown) [Example 3, 4-(Morpholin-4-ylmethyl)-1-phenyl-1,4,6,7-tetrahydro-pyrano[4,3-c]pyrazole], the melting point stood at 115 °C. At σ1-receptor, the Ki was 169 ± 39.6 nM. The compound also returned an inhibition at 1 µM at σ2-receptor of 5%.

In the case of `c1ccc(C2CCN(CC3OCCc4c3cnn4-c3ccccc3)CC2)cc1` (stereo not shown) [Example 2, 1-Phenyl-4-(4-phenylpiperidin-1-ylmethyl)-1,4,6,7-tetrahydropyrano[4,3-c]pyrazole], the inhibition constant Ki came out at 1.6 ± 0.41 nM at σ1-receptor and 8.3 ± 2.66 nM at σ2-receptor.

In the case of `c1ccc(N2CCN(CCC3OCCc4c3cnn4-c3ccccc3)CC2)cc1` (stereo not shown) [Example 11, 1-Phenyl-4-[2-(4-phenyl-piperazin-1-yl)-ethyl]-1,4,6,7-tetrahydro-pyrano[4,3-c]pyrazole], the inhibition constant Ki at σ1-receptor is 2.94 ± 0.43 nM; on σ2-receptor it was 431 nM.

With `c1ccc(C2CCN(CCC3OCCc4c3cnn4-c3ccccc3)CC2)cc1` (stereo not shown) [Example 9, 1-Phenyl-4-[2-(4-phenyl-piperidin-1-yl)-ethyl]-1,4,6,7-tetrahydro-pyrano[4,3-c]pyrazole], the inhibition constant Ki at σ1-receptor came to 0.988 ± 0.07 nM; at σ2-receptor, 15.1 ± 2.98 nM.

On to `c1ccc(N2CCN(CC3OCCc4c3cnn4-c3ccccc3)CC2)cc1` (stereo not shown) [Example 4, 1-Phenyl-4-(4-phenylpiperazin-1-ylmethyl)-1,4,6,7-tetrahydropyrano[4,3-c]pyrazole], for which the melting point was determined as 151 °C. This compound also yielded an inhibition constant (Ki) on σ1-receptor of 42.3 ± 3.32 nM. For the same compound, the affinity at σ2-receptor, expressed as Ki, was 210 ± 54.2 nM.

`CN(C)CC1OCCc2c1cnn2-c1ccccc1` (stereo not shown) [Example 7, N,N-Dimethyl-1-(1-phenyl-1,4,6,7-tetrahydropyrano[4,3-c]pyrazole-4-yl)methanamine] yielded a melting point of 103 °C. Besides, the Ki on σ1-receptor is 1380 nM. At σ2-receptor, this compound had an inhibition at 1 µM of 12%.

For the compound `c1ccc(-n2ncc3c2CCOC3CN2CCCC2)cc1` (stereo not shown) [Example 6, 1-Phenyl-4-(pyrrolidin-1-ylmethyl)-1,4,6,7-tetrahydro-pyrano[4,3-c]pyrazole], the melting point was 89 °C. The same compound came in with an inhibition constant (Ki) on σ1-receptor of 59.3 ± 11.2 nM. The compound further had an inhibition constant (Ki) on σ2-receptor of 322 nM.

As to `CN1CCN(CC2OCCc3c2cnn3-c2ccccc2)CC1` (stereo not shown) [Example 5, 4-(4-Methylpiperazin-1-ylmethyl)-1-phenyl-1,4,6,7-tetrahydropyrano[4,3-c]pyrazole], the melting point came to 66 °C. The Ki on σ1-receptor was found to be 219 ± 7.22 nM. At σ2-receptor, this compound returned an inhibition at 1 µM of 13%.
